Test results taken from ChEMBL document CHEMBL1201862, “PubChem BioAssay data set” (2004).
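Test compounds were applied to cells in 96-well plates for 48 hours at 5 doses. At the GI50, growth is halved.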 Calls of active or inactive are those of the source. No stated cut-off is given here; in the data, active = GI50 up to about 1.1 µM and inactive = higher.

Experiments:
Test in all cases: growth of human tumour cells (NCI), 48 h
Malme-3M = tested on: Malme-3M
SK-OV-3 = tested on: SK-OV-3
NCI-H460 = tested on: NCI-H460
SK-MEL-5 = tested on: SK-MEL-5
HL-60 = tested on: HL-60
SNB-19 = tested on: SNB-19
MOLT-4 = tested on: MOLT-4
SNB-75 = tested on: SNB-75
NCI-H23 = tested on: NCI-H23
NCI-H522 = tested on: NCI-H522
LOX IMVI = tested on: LOX IMVI
ACHN = tested on: ACHN
HOP-92 = tested on: HOP-92
CAKI-1 = tested on: CAKI-1
RPMI-8226 = tested on: RPMI-8226
786-0 = tested on: 786-0
SR = tested on: SR

Measured: GI50

O=C(NN1C(=O)C(Cl)C1c1cccc(O)c1)c1ccccc1O (configuration not stated)
inactive: Malme-3M > 100 µM | SK-OV-3 > 100 µM | NCI-H460 > 100 µM | SK-MEL-5 > 100 µM | HL-60 > 100 µM | SNB-19 > 100 µM | MOLT-4 > 100 µM | SNB-75 > 100 µM | NCI-H23 > 100 µM | NCI-H522 > 100 µM | LOX IMVI > 100 µM | ACHN > 100 µM

CC1=C(O)C(=O)C2C(=O)C1C(C)C2c1ccc(C)cc1 (configuration not stated)
inactive: Malme-3M > 100 µM | HOP-92 > 100 µM | SK-OV-3 > 100 µM | NCI-H460 > 100 µM | CAKI-1 > 100 µM | SK-MEL-5 > 100 µM | SNB-19 > 100 µM | RPMI-8226 > 100 µM | MOLT-4 > 100 µM | 786-0 > 100 µM | SNB-75 98.9 µM | SR > 100 µM | NCI-H23 > 100 µM | NCI-H522 > 100 µM | LOX IMVI > 100 µM | ACHN > 100 µM

O=c1[nH]c2cc(-c3ccccc3)nc-2nn1-c1c(Cl)cc(Cl)cc1Cl
inactive: Malme-3M 24.4 µM | HOP-92 31.5 µM | SK-OV-3 25.8 µM | NCI-H460 30.4 µM | CAKI-1 27.5 µM | SK-MEL-5 25.9 µM | HL-60 20.5 µM | SNB-19 33.1 µM | RPMI-8226 24.3 µM | MOLT-4 22.5 µM | 786-0 30.8 µM | SR 23.7 µM | NCI-H23 24.9 µM | NCI-H522 28.8 µM | LOX IMVI 24.3 µM

C[C@]12CC[C@H](OC(=O)Nc3ccccc3)CC1=CC[C@@H]1C2CC[C@]2(C)/C(=N/OC(=O)Nc3ccccc3)CCC12 (some centres not stated)
inactive: Malme-3M 1.72 µM | HOP-92 20.1 µM | SK-OV-3 > 100 µM | NCI-H460 25.6 µM | CAKI-1 1.81 µM | SK-MEL-5 5.35 µM | HL-60 5.82 µM | SNB-19 76.2 µM | RPMI-8226 5.57 µM | MOLT-4 5.05 µM | 786-0 > 100 µM | SNB-75 5.5 µM | NCI-H23 > 100 µM | LOX IMVI 5.32 µM | ACHN 7.14 µM

C=C=C(C(=O)OC)[S+]([O-])c1ccccc1[N+](=O)[O-] (configuration not stated)
inactive: Malme-3M > 100 µM | SK-OV-3 > 100 µM | NCI-H460 > 100 µM | CAKI-1 > 100 µM | SK-MEL-5 > 100 µM | HL-60 75.2 µM | SNB-19 > 100 µM | RPMI-8226 > 100 µM | MOLT-4 > 100 µM | 786-0 > 100 µM | SNB-75 > 100 µM | NCI-H23 > 100 µM | NCI-H522 22.3 µM | ACHN > 100 µM

C=CCNC(=O)N(CCCC(NC(C)=O)C(=O)NCc1ccccc1)Cc1ccccc1 (configuration not stated)
inactive: Malme-3M > 100 µM | HOP-92 83 µM | SK-OV-3 > 100 µM | NCI-H460 > 100 µM | CAKI-1 > 100 µM | SK-MEL-5 > 100 µM | HL-60 > 100 µM | SNB-19 > 100 µM | RPMI-8226 > 100 µM | MOLT-4 > 100 µM | 786-0 > 100 µM | SNB-75 > 100 µM | NCI-H23 > 100 µM | NCI-H522 > 100 µM | LOX IMVI > 100 µM | ACHN > 100 µM

CC(C)C1N2CCCCC2[C@@H]2c3[nH]c4ccccc4c3CCN12 (some centres not stated)
inactive: HOP-92 > 100 µM | SK-OV-3 > 100 µM | NCI-H460 > 100 µM | CAKI-1 > 100 µM | SK-MEL-5 > 100 µM | HL-60 > 100 µM | SNB-19 > 100 µM | RPMI-8226 > 100 µM | MOLT-4 > 100 µM | 786-0 > 100 µM | SNB-75 > 100 µM | NCI-H23 > 100 µM | ACHN > 100 µM

CC(=O)CCCCO
inactive: Malme-3M > 100 µM | HOP-92 > 100 µM | SK-OV-3 > 100 µM | NCI-H460 > 100 µM | CAKI-1 > 100 µM | SK-MEL-5 > 100 µM | HL-60 > 100 µM | SNB-19 > 100 µM | RPMI-8226 > 100 µM | MOLT-4 > 100 µM | 786-0 > 100 µM | SNB-75 > 100 µM | NCI-H23 > 100 µM | NCI-H522 > 100 µM | LOX IMVI > 100 µM | ACHN > 100 µM

COc1cc2c(cc1OC)C(Cl)C(c1ccc(Cl)c(Cl)c1)=C2Cl (configuration not stated)
inactive: Malme-3M 12.6 µM | HOP-92 4.15 µM | SK-OV-3 15.5 µM | NCI-H460 4.09 µM | CAKI-1 11.2 µM | SK-MEL-5 5.94 µM | HL-60 2.47 µM | SNB-19 15.6 µM | RPMI-8226 3.14 µM | MOLT-4 2.92 µM | SNB-75 8.79 µM | NCI-H23 44.6 µM | NCI-H522 66.4 µM | LOX IMVI 2.24 µM | ACHN 10.2 µM
